# Data: US8815879B2, “Substituted 4-(selenophen-2(or-3)-ylamino)pyrimidine compounds and methods of use thereof” (Kasina Laila Innova Pharmaceuticals Private Limited, priority 2010, dated 2014)
# Counter-ions that a name gives are not always drawn. Like-named read-outs stand apart in the source and are kept apart here.
# Assays:
# [1] = tested on: human lung carcinoma A549 cells; test: MTT based cell proliferation assay, A549; settings: for inhibition at 10 µg/mL / IC50: Homo sapiens, A549, 72 h; for inhibition at 10 µg/mL: read-out: Cell Proliferation Inhibition in A549 (Lung carcinoma), % at highest screening dose; for IC50: read-out: Cell Proliferation Inhibition in A549 (Lung carcinoma), IC50
# Description: (§1) MTT [3-(4,5-dimethylthiazol-2-yl)-2,5-diphenyltetrazolium bromide] incorporation based cell proliferation assay was performed using standard procedure. […] The assay was carried out according to the instructions provided by the vendor. […] Vehicle control culture wells received only a maximum of 0.5% DMSO. Thereafter, 0.5 mg/ml of MTT reagent was added to each well and the microplate was incubated further for 4 h at 37° C. in presence of 5% CO2. Finally, the cells were solubilized by adding solubilizing solution and allowed to incubate at 37° C. overnight. After complete solubilization of the formazan crystals the absorbance was read at 540 nm in a microplate reader (BioRad, USA).
# (§2) The evaluation of cell proliferation inhibitory activities of the compounds was done in two phases—(1) Screening, and (2) half-maximal inhibitory concentration (IC50) determination. In the screening phase, the cells were treated with three different concentrations e.g. 1, 5 and 10 μg/ml.
# [2] = tested on: human colorectal carcinoma HT29 cells; test: MTT based cell proliferation assay, HT29; settings: for inhibition at 10 µg/mL: read-out: Cell Proliferation Inhibition in HT29 (Colon carcinoma), % at highest screening dose; for IC50: read-out: Cell Proliferation Inhibition in HT29 (Colon carcinoma), IC50
# Description: as §1, §2
# [3] = tested on: human prostate DU145 cells; test: MTT based cell proliferation assay, DU145; settings: for inhibition at 10 µg/mL: read-out: Cell Proliferation Inhibition in DU145 (Prostate carcinoma), % at highest screening dose; for IC50: read-out: Cell Proliferation Inhibition in DU145 (Prostate carcinoma), IC50
# Description: as §1, §2
SMILES,inhibition at 10 µg/mL [1] [%],"inhibition at 10 µg/mL ([2]; Homo sapiens, HT-29, 72 h) [%]","inhibition at 10 µg/mL ([3]; Homo sapiens, DU-145, 72 h) [%]",melting point [°C],also measured
"COc1cc2ncnc(N(C)c3cc(C(C)(C)C)[se]c3C(N)=O)c2cc1OCCCN1CCOCC1 [Compound 22, 3-(N-(6-(3-morpholinopropoxy)-7-methoxyquinazolin-4-yl)-N-methylamino)-5-tert-butylselenophene-2-carboxamide]",3.93,34.3,14.7,–,–
"CC(C)(C)c1cc(Nc2ncnc3cc(C(C)(C)C)[se]c23)c(C(N)=O)[se]1 [Compound 18, 3-(6-tert-butylselenopheno[3,2-d]pyrimidin-4-ylamino)-5-tert-butylselenophene-2-carboxamide]",2.18,36.4,7.87,–,–
COc1cc2nc(CN(C)C)nc(Nc3cc(C(C)(C)C)[se]c3C(N)=O)c2cc1OC (as salt: HCl) [Compound 27],–,–,–,226 to 228,–
"COC(=O)c1cc(Nc2ncnc3cc(OC)c(OCCCN4CCOCC4)cc23)c(C)[se]1 [Compound 10, methyl 4-(6-(3-morpholinopropoxy)-7-methoxyquinazolin-4-ylamino)-5-methylselenophene-2-carboxylate]",10.3,6.11,21.4,–,–
"CC(C)(C)c1cc(Nc2ncnc3ncccc23)c(C(N)=O)[se]1 (as salt: HCl) [Compound 12, 5-tert-butyl-3-(pyridino[2,3-d]pyrimidin-4-ylamino)selenophene-2-carboxamide]",–,–,–,242 to 244,–
"CCc1c(C)[se]c2ncnc(Nc3cc(C(C)(C)C)[se]c3C(N)=O)c12 [Compound 19, 3-(5-ethyl-6-methylselenopheno[2,3-d]pyrimidin-4-ylamino)-5-tert-butylselenophene-2-carboxamide]",7.86,43.9,6.68,–,–
"COc1cc2c(Nc3cc(C(C)(C)C)[se]c3C(N)=O)ncnc2cc1OCCCN1CCOCC1 [Compound 5, 3-(7-(3-morpholinopropoxy)-6-methoxyquinazolin-4-ylamino)-5-tert-butylselenophene-2-carboxamide]",–,–,–,–,"IC50 [1]: 4.6 µM; potency in vitro compared to gefitinib (Iressa), A549 ([1]; ratio of IC50 values): approximately four times; IC50 ([2]; Homo sapiens, HT-29, 72 h): 4.07 µM; potency in vitro compared to gefitinib (Iressa), HT29 ([2]; ratio of IC50 values): several times better potency; IC50 ([3]; Homo sapiens, DU-145, 72 h): 3.9 µM; potency in vitro compared to gefitinib (Iressa), DU145 ([3]; ratio of IC50 values): several times better potency"
"COc1cc2nc(C)nc(Nc3cc(C(C)(C)C)[se]c3C(N)=O)c2cc1OC (as salt: HCl) [Compound 24, 3-(6,7-dimethoxy-2-methylquinazolin-4-ylamino)-5-tert-butylselenophene-2-carboxamide]",–,–,–,282 to 284,–
"COc1cc2ncnc(Nc3cc(C(C)(C)C)[se]c3[N+](=O)[O-])c2cc1OCCCN1CCOCC1 [Compound 4, [5-(tert-butyl)-2-nitroselenophen-3-yl][7-methoxy-6-(3-morpholino-propoxy)quinazolin-4-yl]amine]",10.4,–,9.85,–,"IC50 ([2]; Homo sapiens, HT-29, 72 h): 19.3 µM"
"CC(C)(C)c1cc(Nc2ncnc3ccc(N)cc23)c(C(N)=O)[se]1 [Compound 8, 3-(6-aminoquinazolin-4-ylamino)-5-tert-butylselenophene-2-carboxamide]",7.6,81.9,15.7,–,–
"COc1cc2ncnc(Nc3cc(C(N)=O)[se]c3C)c2cc1OCCCN1CCOCC1 [Compound 11, 4-(6-(3-morpholinopropoxy)-7-methoxyquinazolin-4-ylamino)-5-methylselenophene-2-carboxamide]",16,7.41,5.15,–,–
"COCCOc1cc2ncnc(Nc3cc(C(C)(C)C)[se]c3C(N)=O)c2cc1OCCOC (as salt: HCl) [Compound 6, 3-(6,7-bis(2-methoxyethoxy)quinazolin-4-ylamino)-5-tert-butylselenophene-2-carboxamide]",–,–,–,224 to 226,–
"CC(C)(C)c1cc(Nc2ncnc3ccc(N)cc23)c(C(N)=O)[se]1 (as salt: HCl) [Compound 8, 3-(6-aminoquinazolin-4-ylamino)-5-tert-butylselenophene-2-carboxamide]",–,–,–,170 to 172,–
"COc1cc2nc(C)nc(Nc3cc(C(C)(C)C)[se]c3C(N)=O)c2cc1OC [Compound 24, 3-(6,7-dimethoxy-2-methylquinazolin-4-ylamino)-5-tert-butylselenophene-2-carboxamide]",15.1,–,87.7,–,"IC50 ([2]; Homo sapiens, HT-29, 72 h): 10.6 µM"
"COc1cc2c(Nc3cc(C(C)(C)C)[se]c3C(N)=O)ncnc2c(OC)c1OC [Compound 2, 3-(6,7,8-trimethoxyquinazolin-4-ylamino)-5-tert-butylselenophene-2-carboxamide]",–,–,–,–,"IC50 [1]: 31.1 µM; IC50 ([2]; Homo sapiens, HT-29, 72 h): 19.3 µM; IC50 ([3]; Homo sapiens, DU-145, 72 h): 5.98 µM"
"COC(=O)c1cc(Nc2nc(C)nc3cc(OC)c(OC)cc23)c(C)[se]1 (as salt: HCl) [Compound 25, methyl 4-(6,7-dimethoxy-2-methylquinazolin-4-ylamino)-5-methylselenophene-2-carboxylate]",–,–,–,276 to 280,–
"COc1cc2nc(C)nc(Nc3cc(C(C)(C)C)[se]c3C(N)=O)c2cc1OCCCN1CCOCC1 [Compound 26, 3-(6-(3-morpholinopropoxy)-7-methoxy-2-methylquinazolin-4-ylamino)-5-tert-butylselenophene-2-carboxamide]",–,–,–,–,"IC50 [1]: 11.7 µM; IC50 ([2]; Homo sapiens, HT-29, 72 h): 4.28 µM; IC50 ([3]; Homo sapiens, DU-145, 72 h): 6.78 µM"
"CC(C)(C)c1cc(Nc2ncnc3ncccc23)c(C(N)=O)[se]1 [Compound 12, 5-tert-butyl-3-(pyridino[2,3-d]pyrimidin-4-ylamino)selenophene-2-carboxamide]",7,6.75,9.18,–,–
"COc1cc2ncnc(Nc3cc(C(C)(C)C)[se]c3C(N)=O)c2cc1OCCCN1CCOCC1 [Compound 3, 3-(6-(3-morpholinopropoxy)-7-methoxyquinazolin-4-ylamino)-5-tert-butylselenophene-2-carboxamide]",–,–,–,–,"IC50 [1]: 6.71 µM; IC50 ([2]; Homo sapiens, HT-29, 72 h): 5.12 µM; IC50 ([3]; Homo sapiens, DU-145, 72 h): 7.39 µM"
"CSc1nc2ncnc(Nc3cc(C(C)(C)C)[se]c3C(N)=O)c2s1 [Compound 20, 3-(2-(methylthio)thiazolo[4,5-d]pyrimidin-7-ylamino)-5-tert-butylseleno-phene-2-carboxamide]",–,–,–,–,"Cell Proliferation Inhibition in A549 (Lung carcinoma), % at highest screening dose ([1]; at 10 μg/ml (highest dose tested in screening), micromolar equivalent printed in each cell, three days): 1.28% at 23.42 μM; IC50 ([2]; MTT, three days incubation): 9.54 µM; IC50 ([3]; MTT, three days incubation): 17.9 µM"
"COc1cc2ncnc(Nc3cc(C(C)(C)C)[se]c3[N+](=O)[O-])c2cc1OCCCN1CCOCC1 (as salt: HCl) [Compound 4, [5-(tert-butyl)-2-nitroselenophen-3-yl][7-methoxy-6-(3-morpholino-propoxy)quinazolin-4-yl]amine]",–,–,–,240 to 242,–
"CC(C)(C)c1cc(Nc2ncnc3ccc(NC(=O)CCl)cc23)c(C(N)=O)[se]1 (as salt: HCl) [Compound 9, 3-(6-(2-chloroacetamido)quinazolin-4-ylamino)-5-tert-butylselenophene-2-carboxamide]",–,–,–,276 to 278,–
"CC(C)(C)c1cc(Nc2ncnc3ccc(NC(=O)CCl)cc23)c(C(N)=O)[se]1 [Compound 9, 3-(6-(2-chloroacetamido)quinazolin-4-ylamino)-5-tert-butylselenophene-2-carboxamide]",0.19,–,–,–,"IC50 ([2]; Homo sapiens, HT-29, 72 h): 9.24 µM; IC50 ([3]; Homo sapiens, DU-145, 72 h): 8.51 µM"
"COC(=O)c1cc(Nc2nc(C)nc3cc(OC)c(OC)cc23)c(C)[se]1 [Compound 25, methyl 4-(6,7-dimethoxy-2-methylquinazolin-4-ylamino)-5-methylselenophene-2-carboxylate]",2.95,11.8,2.59,–,–
"COc1cc2ncnc(Nc3cc(-c4ccccc4)[se]c3C(N)=O)c2cc1OCCCN1CCOCC1 [Compound 7, 3-(6-(3-morpholinopropoxy)-7-methoxyquinazolin-4-ylamino)-5-phenyl-selenophene-2-carboxamide]",–,85.8,–,–,"IC50 [1]: 6.08 µM; IC50 ([3]; Homo sapiens, DU-145, 72 h): 5.84 µM"
"COC(=O)c1cc(Nc2ncnc3cc(OC)c(OCCCN4CCOCC4)cc23)c(C)[se]1 (as salt: HCl) [Compound 10, methyl 4-(6-(3-morpholinopropoxy)-7-methoxyquinazolin-4-ylamino)-5-methylselenophene-2-carboxylate]",–,–,–,198 to 200,–
"CCc1c(C)sc2ncnc(Nc3cc(C(C)(C)C)[se]c3C(N)=O)c12 [Compound 13, 3-(5-ethyl-6-methylthiopheno[2,3-d]pyrimidin-4-ylamino)-5-tert-butylselenophene-2-carboxamide]",5.68,30.2,8.49,–,–
"COCCOc1cc2ncnc(Nc3cc(C(C)(C)C)[se]c3C(N)=O)c2cc1OCCOC [Compound 6, 3-(6,7-bis(2-methoxyethoxy)quinazolin-4-ylamino)-5-tert-butylselenophene-2-carboxamide]",5.09,86.4,39.7,–,–
"COc1cc2ncnc(N(CCCl)c3cc(C(C)(C)C)[se]c3C(N)=O)c2cc1OCCCN1CCOCC1 [Compound 23, 3-(N-(6-(3-morpholinopropoxy)-7-methoxyquinazolin-4-yl)-N-(2-chloroethyl)amino)-5-tert-butylselenophene-2-carboxamide]",3.28,40.7,22.4,–,–
